Measurements: patent publication US20120315303A1, “METHODS AND INTRAVASCULAR TREATMENT DEVICES USING PACLITAXEL FOR TREATMENT OF ATHEROSCLEROSIS” (Medtronic Vascular, Inc., priority 2011, published 2012)

Assays:
Assay type in all cases: cell-based
CDKN1A = test: qRT-PCR CDKN1A gene expression in drug-treated SFA smooth muscle cells; conditions: SFA smooth muscle cells from normal donor tissue; qRT-PCR calibrated against unstimulated control; FIG. 13A
Method: (§1) FIG. 13 depicts effects of paclitaxel on cellular morphology, gene and protein expression. (A and B) SFA smooth muscle cells from normal donor tissue were treated with Paclitaxel, Everolimus or Sirolimus. Gene expression levels were determined by qRT-PCR for each drug arm calibrated against unstimulated control for (A) CDKN1A and (C) CTGF. (B) SMCs were exposed to Sirolimus or Paclitaxel, fixed and stained with Actin (red) and Ki67 (green). (D) SFA derived smooth muscle cells were treated with Paclitaxel, Everolimus or Sirolimus then stimulated with Colchicinne (CTGF a) or Angiotensin II (CTGF b). Protein levels were detected by western blot using antibodies against CTGF and beta actin. One representative blot of three replicates shown.
(§2) Obtaining samples from SFA arteries allowed us to generate SFA derived-smooth muscle cells and to examine the expression of genes of interest as ide12tified in the disease atherectomy samples. In particularly we investigated the transcriptional response to anti-proliferative drugs, e.g. paclitaxel and drugs from the limus family such as sirolimus, everolimus or zotarolimus. These drugs are currently employed in combination devices indicated for the treatment of coronary and peripheral disease, including drug eluting stents and drug eluting balloons. […]

BTG2 = test: qRT-PCR BTG2 expression in drug-treated, inflammatory cocktail stimulated SFA smooth muscle cells; conditions: quiescent SFA smooth muscle cells stimulated with FBS, TGF Beta and IL1beta, FIG. 14A
Method: (§3) FIG. 14 depicts differential effect of paclitaxel versus the Limus family of drugs on expression of cell cycle, proliferation and ECM target genes in SFA smooth muscle cells. Quiescent SFA smooth muscle cells were treated with of Paclitaxel, Zotarolimus or Sirolimus then stimulated with inflammatory cocktail consisting of FBS, TGF Beta and IL1beta. Relative gene expression levels were determined by qRT-PCR for each drug treated arm as calibrated against the unstimulated baseline control for (A) BTG2, (B) KLF4, (C) PEDF, (D) Endothelin-1, (E) Thrombospondin-1, and (F) Thrombospondin-3.
(§4) Since the limus drugs have been known to affect the signaling via their effect on cell cycle inhibitors (CDKN1A and CDKN1B), we next studied their effects on the pertinent proliferative disease targets identified in this study. Specifically, we looked at BTG2, KLF4 and PEDF (FIGS. 14A, 14B, and 14C, respectively). […] The limus drugs, sirolimus and zotarolimus induced the expression of BTG2, KLF4 cell cycle inhibitors, but not of the proliferation PEDF inhibitor, which are previously unknown actions for these drugs.

PEDF = test: qRT-PCR PEDF expression in drug-treated, inflammatory cocktail stimulated SFA smooth muscle cells; conditions: quiescent SFA smooth muscle cells stimulated with FBS, TGF Beta and IL1beta, FIG. 14C
Method: as §3, §4

CTGF [1] = test: Western blot of CTGF protein in drug-treated SFA derived smooth muscle cells; conditions: SFA derived smooth muscle cells stimulated with Colchicinne or Angiotensin II, FIG. 13D
Method: as §1, §2

KLF4 = test: qRT-PCR KLF4 expression in drug-treated, inflammatory cocktail stimulated SFA smooth muscle cells; conditions: quiescent SFA smooth muscle cells stimulated with FBS, TGF Beta and IL1beta, FIG. 14B
Method: as §3, §4

CTGF [2] = test: qRT-PCR CTGF gene expression in drug-treated SFA smooth muscle cells; conditions: qRT-PCR calibrated against unstimulated control, FIG. 13C
Method: as §1, §2

Endothelin-1 = test: qRT-PCR Endothelin-1 expression in drug-treated, inflammatory cocktail stimulated SFA smooth muscle cells; conditions: quiescent SFA smooth muscle cells stimulated with FBS, TGF Beta and IL1beta, FIG. 14D
Method: as §3
(§5) In a similar manner, the expression of Thrombospondin-1 and Thrombospondin-3 is inhibited by paciltaxel but not by sirolimus and zotarolimus. Taken together the data with regards to the differential effects of commercially employed, anti-proliferative drugs, such as paciltaxel and drugs of the limus family, on the expression of SFA disease target genes can highlight/point to wards the most beneficial therapeutic mode of application and treatment.

Thrombospondin-3 = test: qRT-PCR Thrombospondin-3 expression in drug-treated, inflammatory cocktail stimulated SFA smooth muscle cells; conditions: quiescent SFA smooth muscle cells stimulated with FBS, TGF Beta and IL1beta, FIG. 14F
Method: as §3, §5

Thrombospondin-1 = test: qRT-PCR Thrombospondin-1 expression in drug-treated, inflammatory cocktail stimulated SFA smooth muscle cells; conditions: quiescent SFA smooth muscle cells stimulated with FBS, TGF Beta and IL1beta, FIG. 14E
Method: as §3, §5

SFA smooth muscle cells = test: Actin and Ki67 staining of drug-exposed SMCs (cellular morphology); conditions: SMCs fixed and stained with Actin and Ki67; FIG. 13B
Method: as §1, §2

Cathepsin S = test: In vitro Cathepsin S expression

SMILES | CDKN1A gene expression (CDKN1A) | BTG2 gene expression (BTG2) | PEDF gene expression (PEDF) | CTGF protein levels (CTGF [1]) | KLF4 gene expression (KLF4) | CTGF gene expression (CTGF [2]) | CTGF gene expression (CTGF [2]; listed as paclitexel) | Endothelin-1 gene expression (Endothelin-1; listed as paciltaxel) | Endothelin-1 gene expression (Endothelin-1; listed as paclitexel) | Thrombospondin-3 gene expression (Thrombospondin-3; listed as paciltaxel) | Thrombospondin-3 gene expression (Thrombospondin-3; listed as paclitexel) | Thrombospondin-1 gene expression (Thrombospondin-1; listed as paciltaxel) | Thrombospondin-1 gene expression (Thrombospondin-1; listed as paclitexel) | effect on cellular cytoskeleton / morphology (SFA smooth muscle cells) | Cathepsin S expression (Cathepsin S) | Endothelin-1 gene expression (Endothelin-1)
CO[C@H]1C[C@@H]2CC[C@@H](C)[C@@](O)(O2)C(=O)C(=O)N2CCCC[C@H]2C(=O)O[C@H]([C@H](C)C[C@@H]2CC[C@@H](OCCO)[C@H](OC)C2)CC(=O)[C@H](C)/C=C(\C)[C@@H](O)[C@@H](OC)C(=O)[C@H](C)C[C@H](C)/C=C/C=C/C=C/1C [everolimus] | up regulating | – | – | – | – | – | – | – | – | – | – | – | – | – | – | –
CC(=O)O[C@H]1C(=O)[C@@]2(C)[C@H]([C@H](OC(=O)c3ccccc3)[C@]3(O)C[C@H](OC(=O)[C@H](O)[C@@H](NC(=O)c4ccccc4)c4ccccc4)C(C)=C1C3(C)C)[C@]1(OC(C)=O)CO[C@@H]1C[C@@H]2O (relative stereo) [Paclitaxel, (1S,2S,3R,4S,7R,9S,10S,12R,15S)-4,12-Diacetoxy-15-{[(2R,3S)-3-(benzoylamino)-2-hydroxy-3-phenylpropanoyl]oxy}-1,9-dihydroxy-10,14,17,17-tetramethyl-11-oxo-6-oxatetracyclo[11.3.1.0˜3, 10˜.0˜4,7˜]heptadec-13-en-2-yl rel-benzoate] | does not affect | up regulated | up regulated | reduced | up regulated | substantial down regulation | substantially down regulated | slightly inhibited | substantially down regulated | inhibited | substantially down regulated | inhibited | substantially down regulated | disrupting cellular cytoskeleton | induces | –
CO[C@H]1C[C@@H]2CC[C@@H](C)[C@@](O)(O2)C(=O)C(=O)N2CCCC[C@H]2C(=O)O[C@H]([C@H](C)C[C@@H]2CC[C@H](n3cnnn3)[C@H](OC)C2)CC(=O)[C@H](C)/C=C(\C)[C@@H](O)[C@@H](OC)C(=O)[C@H](C)C[C@H](C)/C=C/C=C/C=C/1C [zotarolimus] | – | induced | – | – | induced | – | – | – | – | – | – | – | – | – | – | substantially upregulated
